Values after ≈ are worked out from the molar mass of the structure shown. Where a SMILES comes first, the peptide text is derived from it.
Key:
Assay type in all cases: cell-based
[1] = system: murine lymphocytic leukemia P388; test: in vitro murine P388 lymphocytic leukemia cell growth inhibition; settings: dose reducing percent growth to 50%
Source text: The following measures are used to express drug activity by giving the drug dose which reduces cell growth to a specified percentage of growth:
(§1) ED50 (P388) and GI50 (HTCL) are the drug doses needed to reduce the percent growth to 50%. There is no mathematical difference between ED50 and GI50, which are both calculated using the same formula. The only difference is historical usage. TGI, (Total Growth Inhibition), is the drug dose needed to yield zero percent growth, i.e., just as many cells at the end of the experiment as were present in the beginning. Whether just as many cells were killed as were produced (steady state), or no growth occurred (total inhibition), cannot be distinguished.
(§2) Each drug is tested at five (5) doses: 100--10--1--0.1--0.01 μg/ml. Percent Growths are calculated for each dose. The two (or three) doses with growth values above, below, (or near to) 50% growth are used to calculate the ED50 /GI50 using a linear regression formula. The log of the dose is used during the regression computation. If no dose yields a growth value under 50%, the results are expressed as: ED50 >(highest dose). If no dose yields growth higher than 50% growth, then ED50 <(lowest dose). Similar calculations are performed for the TGI at 0% growth, and at -50% growth for the LC50.
(§3) At the start of an experiment, cells from the in vitro cell cultures are inoculated into the appropriate tubes or microtiter plates. One set of control tubes/plates is immediately counted to determine the number of cells at the start of the experiment. This is the "baseline count", or "Tzero reading". At the end of the experiment (48 hours later), a second set of control tubes/plates is analyzed to determine the "Control Growth" value. The growth (or death) of cells relative to the initial quantity of cells is used to define the "Percent of Growth".

[2] = system: NCI human cancer cell line panel; test: NCI human cancer cell line panel, in vitro primary screen; settings: for in vitro growth inhibitory activity against human cancer cell lines: result in words
Source text: Current research in the control of cancer in the U.S. is coordinated by the National Cancer Institute (NCI). To determine whether a substance has anti-cancer properties, the NCI has established a systematic protocol. This protocol, which involves the testing of a substance against a standard cell line panel containing 60 human tumor cell lines, has been verified and is accepted in scientific circles. The protocol, and the established statistical means for analyzing the results obtained by the standardized testing are fully described in the literature. See: Boyd, Dr. Michael R., Principles & Practice of Oncology, PPO Updates, Volume 3, Number 10, October 1989, for a general overview of the testing protocol; Monks, Anne et al., "Feasibility of a High-Flux Anticancer Drug Screen Using a Diverse Panel of Cultured Human Tumor Cell Lines", 83 J. Nat. Cancer Inst., No. 11, 757 (1991); and Paull, K. D., "Display and Analysis of Patterns of Differential Activity of Drugs Against Human Tumor Cell Lines; Development of Mean Graph and COMPARE Algorithm", 81 Journal of the National Cancer Institute Reports, No. 14, 1088, (1989), for a description of the methods of statistical analysis. Each of these references are incorporated herein by this reference thereto.
as §1
LC50, (Lethal Concentration 50%), is the drug concentration which reduces growth to -50%, i.e., removes half of the cells originally present at the beginning of the experiment.
as §2, §3

SF-295 = test: human cancer cell line growth inhibition, CNS SF-295
Source text: as §1
(§4) Each drug is tested at five (5) doses: 100--10--1--0.1--0.01 μg/ml. Percent Growths are calculated for each dose. The two (or three) doses with growth values above, below, (or near to) 50% growth are used to calculate the ED50 /GI50 using a linear regression formula. […]
as §3

OVCAR-3 = test: human cancer cell line growth inhibition, ovarian OVCAR-3
Source text: as §1, §4, §3

KM20L2 = test: human cancer cell line growth inhibition, colon KM20L2
Source text: as §1, §4, §3

A498 = test: human cancer cell line growth inhibition, renal A498
Source text: as §1, §4, §3

SK-MEL-5 = test: human cancer cell line growth inhibition, melanoma SK-MEL-5
Source text: as §1, §4, §3

NCI-H460 = test: human cancer cell line growth inhibition, lung NCI-H460
Source text: as §1, §4, §3

SMILES | ED50 (P388) [1] [µg/mL] | in vitro growth inhibitory activity against human cancer cell lines [2] | GI50 ([2]; NCI human cancer cell line panel, quadruplicate experiments) [µM] | GI50 CNS SF-295 (SF-295) [µg/mL] | GI50 ovarian OVCAR-3 (OVCAR-3) [µg/mL] | GI50 colon KM20L2 (KM20L2) [µg/mL] | GI50 renal A498 (A498) [µg/mL] | GI50 melanoma SK-MEL-5 (SK-MEL-5) [µg/mL] | GI50 lung NCI-H460 (NCI-H460) [µg/mL]
CC[C@H](C)[C@@H]1NC(=O)[C@@H]2CCCN2C(=O)[C@@H]2CCCN2C(=O)[C@H]([C@@H](C)CC)NC(=O)[C@H](Cc2ccc(O)cc2)NC(=O)[C@@H]2CCCN2C(=O)[C@@H]2CCCN2C(=O)[C@H](CC(C)C)NC(=O)[C@H](C(C)C)NC(=O)[C@H](Cc2ccccc2)NC1=O [phakellistatin 8, cyclo-(Pro-Pro-Ile-Phe-Val-Leu-Pro-Pro-Tyr-Ile)] (cyclo(FVLPPYIPPI)) | 4.1 (≈ 3.6 µM) | growth inhibitory activity was also demonstrated |  |  |  |  |  |  | 
CC[C@H](C)[C@@H]1NC(=O)[C@H](C)NC(=O)[C@H](CCSC)NC(=O)[C@H](C)NC(=O)[C@@H](CC(N)=O)NC(=O)[C@H](Cc2ccccc2)NC(=O)[C@@H]2CCCN2C1=O [phakellistatin 5, cyclo-(Pro-Phe-Asn-Ala-Met-Ala-Ile)] | 0.23 (≈ 0.309 µM) | growth inhibitory activity was also demonstrated | ~3 |  |  |  |  |  | 
CC[C@H](C)[C@@H]1NC(=O)[C@@H]2CCCN2C(=O)[C@H](CC(C)C)NC(=O)C(Cc2c[nH]c3ccccc23)NC(=O)[C@@H]2CCCN2C(=O)[C@H](Cc2ccccc2)NC(=O)[C@@H]2CCCN2C1=O (stereo partly drawn) [phakellistatin 6, cyclo-(Pro-Trp-Leu-Pro-Ile-Pro-Phe)] | 0.18 (≈ 0.212 µM) | growth inhibitory activity was also demonstrated |  | 0.041 (≈ 0.0482 µM) | 0.025 (≈ 0.0294 µM) | 0.021 (≈ 0.0247 µM) | 0.078 (≈ 0.0917 µM) | 0.032 (≈ 0.0376 µM) | 0.019 (≈ 0.0223 µM)
CC[C@H](C)[C@@H]1NC(=O)[C@@H]2CCCN2C(=O)[C@@H]2CCCN2C(=O)[C@H]([C@@H](C)CC)NC(=O)[C@H](Cc2ccc(O)cc2)NC(=O)[C@@H]2CCCN2C(=O)[C@@H]2CCCN2C(=O)[C@H](CC(C)C)NC(=O)[C@H](C)NC(=O)[C@H](Cc2ccccc2)NC1=O [phakellistatin 7, cyclo-(Pro-Pro-Ile-Phe-Ala-Leu-Pro-Pro-Tyr-Ile)] (cyclo(ALPPYIPPIF)) | 3.0 (≈ 2.7 µM) | growth inhibitory activity was also demonstrated |  |  |  |  |  |  | 
CC[C@H](C)[C@@H]1NC(=O)[C@@H]2CCCN2C(=O)[C@@H]2CCCN2C(=O)[C@H](C(C)C)NC(=O)[C@H](Cc2ccc(O)cc2)NC(=O)[C@@H]2CCCN2C(=O)[C@@H]2CCCN2C(=O)[C@H](CC(C)C)NC(=O)[C@H](C(C)C)NC(=O)[C@H](Cc2ccccc2)NC1=O [phakellistatin 9, cyclo-(Pro-Pro-Ile-Phe-Val-Leu-Pro-Pro-Tyr-Val)] (cyclo(FVLPPYVPPI)) | 1.7 (≈ 1.51 µM) | growth inhibitory activity was also demonstrated |  |  |  |  |  |  | 
